The results in this text go back to PubChem BioAssay (NCI).

“And” between values parts separate entries of the source, which are not always exact repeats. Equal entries are not always repeated.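 Exposure lasted 48 hours, with cells grown in 96-well plates and compounds tested at five concentrations. GI50 = concentration required for 50% inhibition of growth. The concentration for full growth arrest is given as TGI.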 A value given as a limit tells only on which side of the number the result lay.

Test systems include A549 NSCLC; CAKI-1 renal; HOP-62 NSCLC; IGROV1 ovarian; OVCAR-3 ovarian; PC-3 prostate; MOLT-4 leukemia; OVCAR-4 ovarian; UO-31 renal; SR leukemia.
Common to all, as to experiment: NCI tumour cell line growth inhibition, 48 h

`c1ccc(-c2cn(-c3ccccc3)c(-c3ccccc3)n2)cc1`: the GI50 in the experiment with A549 NSCLC was 13.2 µM; in the experiment with CAKI-1 renal it was 17.4 µM; in the experiment with HOP-62 NSCLC, 2.72 µM; with IGROV1 ovarian, 11.9 µM; in the experiment with OVCAR-3 ovarian, 6.38 µM; with PC-3 prostate, 17.1 µM. For the same compound, the GI50 in the experiment on MOLT-4 leukemia was 3160 nM; in the experiment on OVCAR-4 ovarian it was 16.4 µM; in the experiment on UO-31 renal, 11 µM. Besides, the TGI came out at 26.6 µM in the experiment with A549 NSCLC; 31.6 µM in the experiment with CAKI-1 renal; 7.88 µM in the experiment with HOP-62 NSCLC; 25.2 µM in the experiment on IGROV1 ovarian; 18.6 µM in the experiment with OVCAR-3 ovarian; 45.6 µM in the experiment with PC-3 prostate. Further, the TGI was more than 100 µM with MOLT-4 leukemia, 31 µM in the experiment with OVCAR-4 ovarian and 22.9 µM in the experiment with UO-31 renal.
`C/C(=N/NC(=S)N1CC2CCC(CC2)C1)c1cnccn1`: the TGI in the experiment with A549 NSCLC amounted to 10.4 µM; in the experiment with CAKI-1 renal, 11.3 µM; with HOP-62 NSCLC it was 14.9 µM; with IGROV1 ovarian, 2.62 µM; in the experiment with PC-3 prostate, 8.46 µM; in the experiment with MOLT-4 leukemia, 1.32 µM. Besides, the values for the TGI in the experiment with OVCAR-4 ovarian and in the experiment with UO-31 renal were 5.59 µM and 2.02 µM, respectively.
With `CC1(C)OC2C(CO)OC(n3ccc(N)nc3=O)C2O1` (centres undefined), the TGI in the experiment with A549 NSCLC, in the experiment with CAKI-1 renal, in the experiment with HOP-62 NSCLC, in the experiment with IGROV1 ovarian, in the experiment with SR leukemia and with OVCAR-3 ovarian was more than 100 µM each time. The TGI with PC-3 prostate, in the experiment with MOLT-4 leukemia and with UO-31 renal was more than 100 µM in each case.
In the case of `CCC(C)CC(C)C(=O)c1c(O)ccn(O)c1=O` (centres undefined), the GI50 with A549 NSCLC is 1.78 µM; in the experiment on HOP-62 NSCLC, 1.98 µM; with IGROV1 ovarian it was 3.18 µM; with SR leukemia it was 498 nM; with OVCAR-3 ovarian it was 0.415 µM; in the experiment with PC-3 prostate, 1.33 µM. Further, the GI50 in the experiment on MOLT-4 leukemia is 1060 nM; in the experiment with OVCAR-4 ovarian, 0.561 µM; with UO-31 renal, 0.376 µM. Also, the TGI with A549 NSCLC was 36.3 µM; in the experiment with HOP-62 NSCLC, more than 100 µM; in the experiment on IGROV1 ovarian, 28.1 µM; in the experiment with SR leukemia it was 18.3 µM; in the experiment on OVCAR-3 ovarian, 45.3 µM; with PC-3 prostate, more than 100 µM. For the same compound, the TGI in the experiment with MOLT-4 leukemia was 17.6 µM; in the experiment with OVCAR-4 ovarian it was more than 100 µM; in the experiment with UO-31 renal, 4.31 µM.
Take `CC(=O)OCC1OC([Se-])C(OC(C)=O)C(OC(C)=O)C1OC(C)=O.N#CCC[PH+](CCC#N)CCC#N.[Au+]` (centres undefined): the GI50 in the experiment with A549 NSCLC was 9.09 µM; in the experiment on CAKI-1 renal, 16.2 µM; in the experiment with HOP-62 NSCLC, 25.2 µM; with IGROV1 ovarian, 24.5 µM; in the experiment with SR leukemia, 3060 nM; in the experiment on OVCAR-3 ovarian, 7.3 µM. Also, the GI50 with MOLT-4 leukemia is 2750 nM; with OVCAR-4 ovarian it was 13.8 µM; in the experiment with UO-31 renal, 8.41 µM. In addition, the TGI in the experiment with A549 NSCLC is 42.4 µM; in the experiment on CAKI-1 renal, 55.6 µM; in the experiment on HOP-62 NSCLC it was 68.8 µM; in the experiment on IGROV1 ovarian it was more than 81.6 µM; in the experiment on SR leukemia it was 13.7 µM; with OVCAR-3 ovarian, 49.7 µM. The TGI with MOLT-4 leukemia was determined as 14.1 µM; in the experiment with OVCAR-4 ovarian, 65.8 µM; with UO-31 renal, 42.1 µM.
For the compound `O=C1NC(=O)C(c2ccccc2)=C1Nc1ccccc1`, the GI50 in the experiment with A549 NSCLC, in the experiment on CAKI-1 renal, in the experiment with HOP-62 NSCLC, in the experiment on IGROV1 ovarian, in the experiment with OVCAR-3 ovarian and in the experiment with PC-3 prostate was more than 25 µM throughout. In addition, the GI50 was more than 25000 nM in the experiment with MOLT-4 leukemia, more than 25 µM in the experiment with OVCAR-4 ovarian and more than 25 µM in the experiment with UO-31 renal. For the same compound, the TGI in the experiment on A549 NSCLC, with CAKI-1 renal, with HOP-62 NSCLC, in the experiment with IGROV1 ovarian, with OVCAR-3 ovarian and in the experiment with PC-3 prostate was more than 25 µM throughout. Further, the TGI in the experiment with MOLT-4 leukemia, with OVCAR-4 ovarian and in the experiment on UO-31 renal was more than 25 µM throughout.
Take `O=C(N/C=C/C=C/Sc1ccccc1)OCc1ccccc1`: the TGI is 59.8 µM with A549 NSCLC; 37.2 µM in the experiment on CAKI-1 renal; 49.2 µM in the experiment on HOP-62 NSCLC; 42.1 µM in the experiment with IGROV1 ovarian; more than 100 µM with SR leukemia; 32 µM in the experiment on OVCAR-3 ovarian. For the same compound, the TGI in the experiment on MOLT-4 leukemia was more than 100 µM; in the experiment on OVCAR-4 ovarian, 57 µM; with UO-31 renal it was 42 µM.
For `NC(CO)c1ccc(OCc2ccccc2)cc1` (centres undefined), the TGI with A549 NSCLC is more than 100 µM; in the experiment with CAKI-1 renal, more than 91.4 µM; in the experiment with HOP-62 NSCLC it was more than 100 µM; with IGROV1 ovarian it was more than 100 µM; with SR leukemia, 81.5 µM; in the experiment with OVCAR-3 ovarian, more than 100 µM. Further, the TGI in the experiment with MOLT-4 leukemia, in the experiment with OVCAR-4 ovarian and in the experiment with UO-31 renal was more than 100 µM in each case.
As for `COC1=CC(=O)OC(/C=C(C)/C=C/C2=C(C)CCCC2(C)C)C1` (centres undefined), the TGI in the experiment with A549 NSCLC, in the experiment with CAKI-1 renal, with HOP-62 NSCLC, in the experiment with IGROV1 ovarian, in the experiment with SR leukemia and in the experiment on OVCAR-3 ovarian was more than 100 µM each time. The TGI with MOLT-4 leukemia, with OVCAR-4 ovarian and with UO-31 renal was more than 100 µM in each case.
In the case of `O=C(O)c1ccc(C(=O)O)c(C(=O)O)c1.[NH-]C1CCCCC1[NH-].[Pt+2]`, the GI50 with A549 NSCLC was 1.87 µM; in the experiment with CAKI-1 renal it was 1.86 µM; in the experiment with HOP-62 NSCLC, 11.7 µM; in the experiment with IGROV1 ovarian, 4.57 µM; in the experiment with OVCAR-3 ovarian, 8.64 µM; with PC-3 prostate it was 4.94 µM. Further, the GI50 was 500 nM and 4840 nM in the experiment with MOLT-4 leukemia; 7.73 µM in the experiment with OVCAR-4 ovarian; 4.22 µM in the experiment with UO-31 renal. The TGI in the experiment on A549 NSCLC is 39 µM; in the experiment on CAKI-1 renal, 32.7 µM; with HOP-62 NSCLC it was more than 74.4 µM; in the experiment with IGROV1 ovarian it was 44.6 µM; in the experiment with OVCAR-3 ovarian it was 39.9 µM; in the experiment with PC-3 prostate it was 59.5 µM. Moreover, the TGI in the experiment on MOLT-4 leukemia amounted to 20 µM; in the experiment on OVCAR-4 ovarian, 50.2 µM; in the experiment with UO-31 renal, 26.5 µM.
